# Results from patent US20230348376A1 (TEIJIN PHARMA LIMITED, priority 2020, published 2023).
# Target: T1, human VDR (Homo sapiens, UniProt P11473)
# T1 sequence (P11473 1-427): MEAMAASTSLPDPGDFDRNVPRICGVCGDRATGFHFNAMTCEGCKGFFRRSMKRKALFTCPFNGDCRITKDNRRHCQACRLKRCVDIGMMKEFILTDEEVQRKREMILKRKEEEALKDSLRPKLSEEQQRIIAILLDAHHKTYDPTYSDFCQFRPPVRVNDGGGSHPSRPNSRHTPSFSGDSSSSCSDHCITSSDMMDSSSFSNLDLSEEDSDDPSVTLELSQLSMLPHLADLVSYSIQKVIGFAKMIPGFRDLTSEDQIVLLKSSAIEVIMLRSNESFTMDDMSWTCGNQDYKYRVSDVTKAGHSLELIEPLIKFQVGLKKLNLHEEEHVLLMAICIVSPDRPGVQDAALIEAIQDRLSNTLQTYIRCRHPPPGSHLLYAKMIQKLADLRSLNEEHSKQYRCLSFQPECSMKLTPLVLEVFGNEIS
# T1 sequence (P19793 1-462 partner): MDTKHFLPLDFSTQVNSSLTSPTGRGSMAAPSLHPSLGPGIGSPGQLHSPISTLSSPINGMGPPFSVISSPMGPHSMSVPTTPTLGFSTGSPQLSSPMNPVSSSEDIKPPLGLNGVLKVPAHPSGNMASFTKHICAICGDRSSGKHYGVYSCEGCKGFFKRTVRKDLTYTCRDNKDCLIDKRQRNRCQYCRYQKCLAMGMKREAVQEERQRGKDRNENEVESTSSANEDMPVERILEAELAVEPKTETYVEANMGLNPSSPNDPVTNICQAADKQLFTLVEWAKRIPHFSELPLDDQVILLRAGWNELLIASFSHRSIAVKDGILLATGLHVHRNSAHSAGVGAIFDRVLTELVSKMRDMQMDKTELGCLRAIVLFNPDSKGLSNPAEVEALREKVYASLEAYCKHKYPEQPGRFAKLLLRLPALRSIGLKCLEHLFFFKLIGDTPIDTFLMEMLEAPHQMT
# Test: Evaluation of VDR transcription activity in human osteoblasts (HOS cells), luciferase reporter
# Conditions: Activity (EC50, VDR transcription activity), HOS cells transfected with human VDR, human RXRα and DR3 luciferase reporter; 21 hours
row,SMILES,EC50
1,"C=C1[C@H](O)CC(=C/C=C2\CCC[C@]3(C)[C@@H]([C@H](C)CN4CCC(O)(C(F)(F)F)C4)CC[C@@H]23)C[C@H]1O (single isomer, unassigned) [Compound B046a]",< 1 nM
2,"C=C1/C(=C\C=C2/CCC[C@]3(C)[C@@H]([C@H](C)CN4CCCC(O)(C(F)(F)F)C4)CC[C@@H]23)C[C@@H](O)C[C@@H]1O (single isomer, unassigned) [Compound C030b]",1 to 10 nM
3,"C=C1/C(=C\C=C2/CCC[C@]3(C)[C@@H]([C@H](C)CN4CCCC(O)(C(F)(F)F)C4)CC[C@@H]23)C[C@@H](O)[C@H](C)[C@@H]1O (single isomer, unassigned) [Compound C031a]",< 1 nM
4,"C=C1/C(=C\C=C2/CCC[C@]3(C)[C@@H]([C@@H](C)CN4CCCC(O)(C(F)(F)F)C4)CC[C@@H]23)C[C@@H](O)C[C@@H]1O (single isomer, unassigned) [Compound C033a]",< 1 nM
5,"C=C1/C(=C\C=C2/CCC[C@]3(C)[C@@H]([C@H](C)CN4CCCC(C)(OC)C4)CC[C@@H]23)C[C@@H](O)C[C@@H]1O (single isomer, unassigned) [Compound C043a]",1 to 10 nM
6,"C=C1/C(=C\C=C2/CCC[C@]3(C)[C@@H]([C@H](C)CN4CCCC(C)(OC)C4)CC[C@@H]23)C[C@@H](O)C[C@@H]1O (single isomer, unassigned) [Compound C043b]",100 to 1000 nM
7,"CCC1(O)CCCN(C[C@@H](C)[C@H]2CC[C@H]3/C(=C/C=C4C[C@@H](O)C[C@H](O)C4)CCC[C@]23C)C1 (single isomer, unassigned) [Compound C044a]",10 to 100 nM
8,"C=C1[C@H](O)CC(=C/C=C2\CCC[C@]3(C)[C@@H]([C@H](C)CN4CCCC(O)(CC)C4)CC[C@@H]23)C[C@H]1O (single isomer, unassigned) [Compound C046a]",< 1 nM
9,"C=C1[C@H](O)CC(=C/C=C2\CCC[C@]3(C)[C@@H]([C@H](C)CN4CCCC(C)(OC)C4)CC[C@@H]23)C[C@H]1O (single isomer, unassigned) [Compound C047a]",1 to 10 nM
10,"C=C1[C@H](O)CC(=C/C=C2\CCC[C@]3(C)[C@@H]([C@H](C)CN4CCCC(C)(OC)C4)CC[C@@H]23)C[C@H]1O (single isomer, unassigned) [Compound C047b]",10 to 100 nM
11,"C=C1/C(=C\C=C2/CCC[C@]3(C)[C@@H]([C@H](C)CN4CCOC(C(F)(F)F)C4)CC[C@@H]23)C[C@@H](O)[C@H](C)[C@@H]1O (single isomer, unassigned) [Compound D009a]",1 to 10 nM
12,"C=C1/C(=C\C=C2/CCC[C@]3(C)[C@@H]([C@H](C)CN4CCOC(C(F)(F)F)C4)CC[C@@H]23)C[C@@H](O)[C@H](C)[C@@H]1O (single isomer, unassigned) [Compound D009b]",10 to 100 nM
13,"C=C1/C(=C\C=C2/CCC[C@]3(C)[C@@H](C(C)CN4CC(F)C4)CC[C@@H]23)C[C@@H](O)C[C@@H]1O (stereo in doubt) [Compound A001, (1R,3S,Z)-5-(2-((1R,3aS,7aR,E)-1-((R)-1-(3-fluoroazetidin-1-yl)propan-2-yl)-7a-methyloctahydro-4H-inden-4-ylidene)ethylidene)-4-methylenecyclohexane-1,3-diol]",100 to 1000 nM

# Now from value to molecule:
row,EC50,SMILES
1,< 1 nM,"C=C1/C(=C\C=C2/CCC[C@]3(C)[C@@H]([C@H](C)CN4CCC(O)(C(F)(F)F)C4)CC[C@@H]23)C[C@@H](O)C[C@@H]1O (single isomer, unassigned) [Compound B044a]"
2,1 to 10 nM,"C=C1/C(=C\C=C2/CCC[C@]3(C)[C@@H]([C@H](C)CN4CCCC(O)(C(F)(F)F)C4)CC[C@@H]23)C[C@@H](O)[C@H](C)[C@@H]1O (single isomer, unassigned) [Compound C031b]"
3,1 to 10 nM,"C=C1/C(=C\C=C2/CCC[C@]3(C)[C@@H]([C@@H](C)CN4CCCC(O)(C(F)(F)F)C4)CC[C@@H]23)C[C@@H](O)C[C@@H]1O (single isomer, unassigned) [Compound C033b]"
4,< 1 nM,"C=C1/C(=C\C=C2/CCC[C@]3(C)[C@@H]([C@H](C)CN4CCCC(O)(C(F)F)C4)CC[C@@H]23)C[C@@H](O)C[C@@H]1O (single isomer, unassigned) [Compound C034a]"
5,10 to 100 nM,"C=C1/C(=C\C=C2/CCC[C@]3(C)[C@@H]([C@H](C)CN4CCCC(O)(C(F)F)C4)CC[C@@H]23)C[C@@H](O)C[C@@H]1O (single isomer, unassigned) [Compound C034b]"
6,10 to 100 nM,"C[C@H](CN1CCCC(O)(C(F)F)C1)[C@H]1CC[C@H]2/C(=C/C=C3C[C@@H](O)C[C@H](O)C3)CCC[C@]12C (single isomer, unassigned) [Compound C035b]"
7,< 1 nM,"C=C1/C(=C\C=C2/CCC[C@]3(C)[C@@H]([C@H](C)CN4CCCC(C)(O)C4)CC[C@@H]23)C[C@@H](O)C[C@@H]1O (single isomer, unassigned) [Compound C037a]"
8,10 to 100 nM,"C=C1/C(=C\C=C2/CCC[C@]3(C)[C@@H]([C@H](C)CN4CCCC(C)(O)C4)CC[C@@H]23)C[C@@H](O)C[C@@H]1O (single isomer, unassigned) [Compound C037b]"
9,< 1 nM,"C=C1/C(=C\C=C2/CCC[C@]3(C)[C@@H]([C@H](C)CN4CCCC(O)(CC)C4)CC[C@@H]23)C[C@@H](O)C[C@@H]1O (single isomer, unassigned) [Compound C042a]"
10,100 to 1000 nM,"CCC1(O)CCCN(C[C@@H](C)[C@H]2CC[C@H]3/C(=C/C=C4C[C@@H](O)C[C@H](O)C4)CCC[C@]23C)C1 (single isomer, unassigned) [Compound C044b]"
11,1 to 10 nM,"C=C1[C@H](O)CC(=C/C=C2\CCC[C@]3(C)[C@@H]([C@H](C)CN4CCCC(O)(CC)C4)CC[C@@H]23)C[C@H]1O (single isomer, unassigned) [Compound C046b]"
12,1 to 10 nM,"C=C1C(O)CC(=C/C=C2\CCC[C@]3(C)[C@@H]([C@H](C)CN4CC[C@@H](OC(F)(F)F)C4)CC[C@@H]23)C[C@H]1O (stereo in doubt) [Compound B068, (1R,3S)-5-(2-((1R,3aS,7aR,E)-7a-methyl-1-((S)-1-((R)-3-(trifluoromethoxy)pyrrolidin-1-yl)propan-2-yl)octahydro-4H-inden-4-ylidene)ethylidene)-2-methylenecyclohexane-1,3-diol]"
13,10 to 100 nM,"C[C@H](CN1CC[C@H](OC(F)(F)F)C1)[C@H]1CC[C@H]2/C(=C/C=C3CC(O)C[C@H](O)C3)CCC[C@]12C (stereo in doubt) [Compound B069, (1R,3S)-5-(2-((1R,3aS,7aR,E)-7a-methyl-1-((S)-1-((S)-3-(trifluoromethoxy)pyrrolidin-1-yl)propan-2-yl)octahydro-4H-inden-4-ylidene)ethylidene)cyclohexane-1,3-diol]"
14,10 to 100 nM,"C[C@H](CN1CC[C@](C)(O)C1)[C@H]1CC[C@H]2/C(=C/C=C3CC(O)C[C@H](O)C3)CCC[C@]12C (stereo in doubt) [Compound B072, (1R,3 S)-5-(2-((1R,3aS,7aR,E)-1-((S)-1-((S)-3-hydroxy-3-methylpyrrolidin-1-yl)propan-2-yl)-7a-methyloctahydro-4H-inden-4-ylidene)ethylidene)cyclohexane-1,3-diol]"
15,100 to 1000 nM,"C[C@H](CN1CC[C@@](C)(O)C1)[C@H]1CC[C@H]2/C(=C/C=C3CC(O)C[C@H](O)C3)CCC[C@]12C (stereo in doubt) [Compound B075, (1R,3S)-5-(2-((1R,3aS,7aR,E)-1-((S)-1-((R)-3-hydroxy-3-methylpyrrolidin-1-yl)propan-2-yl)-7a-methyloctahydro-4H-inden-4-ylidene)ethylidene)cyclohexane-1,3-diol]"
16,10 to 100 nM,"C=C1C(O)CC(=C/C=C2\CCC[C@]3(C)[C@@H]([C@H](C)CN4CC[C@@](C)(O)C4)CC[C@@H]23)C[C@H]1O (stereo in doubt) [Compound B076, (1R,3S)-5-(2-((1R,3aS,7aR,E)-1-((S)-1-((R)-3-hydroxy-3-methylpyrrolidin-1-yl)propan-2-yl)-7a-methyloctahydro-4H-inden-4-ylidene)ethylidene)-2-methylenecyclohexane-1,3-diol]"

# Same assay, conditions: read-out: Activity (EC50, VDR transcription activity); HOS cells transfected with human VDR, human RXRα and DR3 luciferase reporter; 21 hours
row,SMILES,EC50
1,"C=C1/C(=C\C=C2/CCC[C@]3(C)[C@@H]([C@H](C)CN4CCC(O)(C(F)(F)F)C4)CC[C@@H]23)C[C@@H](O)C[C@@H]1O (single isomer, unassigned) [Compound B044b]",< 1 nM
2,"C=C1[C@H](O)CC(=C/C=C2\CCC[C@]3(C)[C@@H]([C@H](C)CN4CCC(O)(C(F)(F)F)C4)CC[C@@H]23)C[C@H]1O (single isomer, unassigned) [Compound B046b]",< 1 nM
